In US20020049157A1, “Use of proteasome inhibitors for treating cancer, inflammation, autoimmune disease, graft rejection and septic shock” (priority 1998, published 2002):

Legend:
C57BL/6 spleen cells = assay: Mixed lymphocyte culture (MLR), alloantigen-specific response; type: cell-based, mouse; conditions: MLR treated on day 2 with LAC 8 μM for 3 h; restimulated after 8 days
Procedure: The C57BL/6 spleen cells (H-2^b) were stimulated with mitomycin c-treated BALB/c spleen cells (H-2^d). On day 2 when most of the H-2^d-specific cells were activated, the mixed lymphocyte culture (MLR) was treated with lactacystin (LAC, 8 μM) for 3 h. After wash, the cells were put back in culture for additional 8 days, and then stimulated with either fresh BALB/c or C3H (H-2^k) spleen cells. […] The difference is more pronounced in day three of the culture.
It is therefore an embodiment of this invention to use proteasome inhibitors, particularly lactacystin in transplantation and autoimmune diseases where certain undesirable activated T cells can be repressed or eliminated and the rest of the T cell population is generally unaffected by such inhibitors.

[1] = Activity of LAC in culture supernatants / medium over time; type: physicochemical; conditions: for inhibitory activity of LAC-conditioned media on proteasome activity of fresh Jurkat cells: LAC 6 μM
Procedure: C. The activity of LAC in culture supernatants is short-lived LAC (6 μM) was added to Jurkat cell culture (0.5×10^6 cells/ml). The supernatants were harvested at 4 h, 6 h, 16 h and 24 h. These conditioned media were used to culture fresh Jurkat cells for 3 h. The cells were then harvested and assayed for the proteasome activity as described in FIG. 4B. Samples were in duplicates.
We also investigated whether LAC was stable in the culture supernatant. LAC (6 μM) was added to Jurkat cells culture for 4 h, 6 h, 16 h or 24 h. The conditioned medium was harvested and used to treat fresh Jurkat cells for 3 h, and then the proteasome activity in the lysates of the fresh Jurkat cells was assayed. […] The loss of LAC activity in the 16 h and 24 h conditioned medium is unlikely due to trapping of LAC by proteasomes released by dead Jurkat cells, because LAC could rapidly enter the live cells and the equilibrium of the LAC concentration between both sides of the cytoplasmic membrane should be established very fast. Thus, the proteasomes whether released or not should not make a difference in terms of trapping LAC. Besides, we have also noticed that LAC kept in cell free culture medium at 4° C. would lose its activity within 24 h (data not shown).

cyclin A = assay: Immunoblotting of cyclin A level in T cells; type: cell-based, human; conditions: PHA plus hydroxyurea block, released; LAC added at release
Procedure: Tonsillar T cells were stimulated with PHA (2 μg/ml) for 40 h in the presence of hydroxyurea (1 mM), and these cells were blocked at the G1/S boundary (G1 block). The synchronization was released by washing out hydroxyurea, and the cells were recultured in medium containing 2 μg/ml PHA in the absence or presence of LAC ([…], added once at the time of the release). The cells were harvested at 6 h and 22 h post the G1/S block. The cell lysates (40 μg/sample) were resolved in 10% SDS-PAGE, and transferred to PVDF membranes. The membranes were hybridized with rabbit-anti-Cyclin E or anticyclin A antisera followed by ^125I-protein A. The Cyclin E level (FIG. 8A) and cyclin A level (FIG. 8B) of representative experiments are shown. Similar results were obtained in a total of three independent experiments.
The G1/S phase synchronized T cells represented activated cells, and prolonged exposure to LAC would cause significant cell death.
Tonsillar T cells were cultured in the presence of 2 μg/ml PHA and 1 mM hydroxyurea for 40 h. The cells thus treated were synchronized at the G1/S phase. […]
Immunoblotting was employed to evaluate the levels of Cyclin E, cyclin A, p21^Cip1 and p27^Kip1. […] The cleared lysates were quantitated for protein concentrations. […] The signals on the membrane were detected by [^125I]-protein A followed by autoradiography.

proteasome = assay: Proteasome activity in lysates of LAC-pretreated Jurkat cells (proteinase assay, sLLVY-MCA); type: cell-based; conditions: for proteasome activity in Jurkat cells: 3 h preincubation with LAC 6 μM
Procedure: B. The inhibitory effect of LAC on the proteasome activity was reversible in the cells Jurkat cells were pretreated with LAC (6 μM) in culture medium for 3 h. The cells were washed and recultured at 0.5×10^6 cells/ml for 0 h, 5 h or 21 h. The cells were then harvested, washed and sonicated. The lysate protein (20 μg/sample) was assayed for its proteinase activity under a condition at which 90% of the activity was attributed to the proteasome. The samples were in duplicates. The result is expressed as relative fluorescence intensity at 440 nm.
We used Jurkat cells that have high constitutive proteasome activity to evaluate the duration of LAC's effect once the drug entered the cells. Jurkat cells were treated with LAC (6 μM) for 3 h, which was sufficiently long for the compound to enter the cells as shown above. The cells were then thoroughly washed and recuitured, and they were harvested at 0 h, 5 h and 21 h after the wash, and the proteasome activity in the cell lysates was measured using a chromogenic chymotrypsin substrate. We have previously established that the proteinase activity measured by this assay was predominantly (more than 90%) derived from the proteasome (Wang et al., 1997, Eur. J. Immunol., supra).

CC(=O)N[C@@H](CSC(=O)[C@]1([C@@H](O)C(C)C)NC(=O)[C@H](C)[C@@H]1O)C(=O)O [LAC, lactacystin]
response to restimulation with BALB/c cells (C57BL/6 spleen cells): failed to respond to the BALB/c cells
response to restimulation with third party C3H cells (C57BL/6 spleen cells): respond well to third party C3H
inhibitory activity of LAC-conditioned media on proteasome activity of fresh Jurkat cells ([1]; media conditioned 16 h and 24 h): lost their inhibitory effect
inhibitory activity of LAC-conditioned media on proteasome activity of fresh Jurkat cells ([1]; media conditioned up to 6 h): could still actively inhibit the enzymatic activity
time in which LAC loses its activity ([1]; cell free culture medium at 4° C., data not shown): ≤ 24 h
cyclin A level during the S phase (cyclin A): did not affect the level
active duration within the cell and in the culture media (proteasome): about 16 h
proteasome activity in Jurkat cells (proteasome; 0 h after wash): almost completely inhibited
proteasome activity in Jurkat cells (proteasome; 5 h after wash): still significantly inhibited
proteasome activity in Jurkat cells (proteasome; 21 h after wash): returned to a near-normal level
time in which LAC loses its activity in the cells (proteasome; Jurkat cells after 3 h LAC 6 μM and wash): ≤ 21 h
